{"source": "paper PMC5903342", "about": "(Oxidative Medicine and Cellular Longevity, 2018)", "key": {"[1]": {"tested_on": "Salmonella enterica serovar typhimurium TA104", "assay": "Antimutagenicity assay (Salmonella/microsome), strain TA104", "type": "cell-based", "conditions": "TA104, cotreatment", "excerpt": "(§1) Salmonella enterica serovar typhimurium (S. typhimurium) strains TA100, TA1535, TA104, and TA102 from the authors' laboratory stock were used as described by Maron and Ames in the antimutagenicity assay.\n(§2) We carried out the coexposure protocol of the antimutagenicity assay to investigate the potential of the compound to protect against alkylation-mediated genetic mutation in S. typhimurium TA100, TA102, TA104, and TA1535 strains according to Ajith and Soja. The test proceeded both in the absence and presence of a metabolic activation system (4% S9 mix, Aroclor preinduced, from MOLTOX Inc., USA). DMSO 1% served as the negative control. […] The mixtures were incubated in a shaker at 37°C (preincubation) under light protection. After a total of 60 min of cotreatment, the mixtures were added to and mixed with 2 mL top agar containing 0.05 mmol/L L-histidine and D-biotin for the S. typhimurium strains. Each of these was then spread on a minimal glucose agar (1.5% agar, Vogel-Bonner medium E, containing 2% glucose) plate. After the top agar solidified, the plates were incubated at 37°C for 60–72 h. Each tester strain was assayed in triplicate and repeated at least twice, and the number of revertant colonies was counted for each tester strain and treatment group. The counts of revertant colonies were obtained to build a dose-response curve and calculate the percentage of reduction."}, "[2]": {"tested_on": "Salmonella enterica serovar typhimurium TA102", "assay": "Antimutagenicity assay (Salmonella/microsome), strain TA102", "type": "cell-based", "conditions": "TA102, cotreatment", "excerpt": "as §1, §2"}, "[3]": {"tested_on": "S. enterica serovar typhimurium-tested strains", "assay": "Cytotoxic effect in bacterial strains (CFU survival)", "type": "cell-based, Salmonella enterica serovar typhimurium", "conditions": "presence and absence of exogenous metabolic activation (data not shown)", "procedure": "To determine the cytotoxic effect, after 60 min incubation, the assay mixtures were diluted in 0.9% NaCl (w/v) to obtain a suspension containing 2 × 10^2 cells/mL. A suitable aliquot (100 μL) of this suspension was plated on nutrient agar (0.8% bacto nutrient broth (Difco), 0.5% NaCl, and 1.5% agar). The plates were then incubated at 37°C for 24 h, and the colony-forming units (CFU) were counted to obtain the percentage of survival. All the experiments were done in triplicate and were repeated at least twice."}, "[4]": {"tested_on": "HepG2 cells", "assay": "Cytoprotective assay of HepG2 cells (WST-1, coexposure with alkylating agent at LC50)", "type": "cell-based, Human", "conditions": "24 h coexposure with 20 μM MMS, AVA at 1.0 and 10.0 μM", "procedure": "After 24 h of coexposure, the culture medium was replaced by a 90 μL fresh culture medium and 10 μL WST-1 and incubated at 37°C and 5% CO2 for 2 h. The absorbance was then measured following the protocol as described before. The survival rates were determined in comparison to the negative control."}, "[5]": {"tested_on": "HepG2 cells", "assay": "Flow cytometry cell cycle analysis", "type": "cell-based, Human", "conditions": "24 h", "procedure": "The cells (1 × 10^5) were washed in PBS solution and centrifuged at 400 ×g for 5 min, and after, the cells were suspended in DNA staining solution (0.3% Triton X-100 and 50 μg/mL propidium iodide (PI) in a 43 mM citrate buffer), as previously described. After 45 minutes of treatment with 50 μg/mL ribonuclease A (Sigma, EUA), the PI fluorescence was determined (10,000 events per sample) in a Gallios flow cytometer (Beckman Coulter, USA). Data were analyzed by the Summit v4.3 software. The experiments were done at least three times, and statistical analysis was performed by one-way ANOVA followed by a Tukey's post hoc test."}, "[6]": {"conditions": "+S9, CPA (150 μM), atorvastatin 20 μM"}, "[7]": {"conditions": "+S9, CPA (150 μM), atorvastatin 100 μM"}, "[8]": {"conditions": "+S9, CPA (150 μM), atorvastatin 200 μM"}, "[9]": {"conditions": "+S9, CPA (150 μM), atorvastatin 1000 μM"}, "[10]": {"conditions": "+S9, CPA (150 μM), atorvastatin 1000 μM, listed as Atorvastatin"}, "[11]": {"conditions": "−S9, MMS (100 μM), atorvastatin 20 μM"}, "[12]": {"conditions": "−S9, MMS (100 μM), atorvastatin 100 μM"}, "[13]": {"conditions": "−S9, MMS (100 μM), atorvastatin 200 μM"}, "[14]": {"conditions": "−S9, MMS (100 μM), atorvastatin 200 μM, listed as Atorvastatin"}, "[15]": {"conditions": "−S9, MMS (100 μM), atorvastatin 1000 μM"}, "[16]": {"conditions": "−S9, MMS (100 μM), atorvastatin 1000 μM, listed as Atorvastatin"}}, "note": "Entries after “also recorded” stand apart in the source; their conditions may differ.", "data": [{"smiles": "CC(C)c1c(C(=O)Nc2ccccc2)c(-c2ccccc2)c(-c2ccc(F)cc2)n1CC[C@@H](O)C[C@@H](O)CC(=O)O", "note": "[AVA, atorvastatin]", "values": [{"measurement": "% reduction", "setting": "[1]; [6]", "value": 19.29, "unit": "%"}, {"measurement": "His+ (revertant colonies)", "setting": "[1]; [6]", "value": "969 ± 54"}, {"measurement": "% reduction", "setting": "[1]; [7]", "value": 25, "unit": "%"}, {"measurement": "His+ (revertant colonies)", "setting": "[1]; [7]", "value": "933 ± 38"}, {"measurement": "% reduction", "setting": "[1]; +S9, CPA (150 μM), atorvastatin 100 μM, listed as Atorvastatin", "value": "25.00^∗ %"}, {"measurement": "% reduction", "setting": "[1]; [8]", "value": 29, "unit": "%"}, {"measurement": "His+ (revertant colonies)", "setting": "[1]; [8]", "value": "905 ± 42"}, {"measurement": "% reduction", "setting": "[1]; +S9, CPA (150 μM), atorvastatin 200 μM, listed as Atorvastatin", "value": "29.29^∗ %"}, {"measurement": "% reduction", "setting": "[1]; [9]", "value": 41, "unit": "%"}, {"measurement": "His+ (revertant colonies)", "setting": "[1]; [9]", "value": "829 ± 11"}, {"measurement": "% reduction", "setting": "[1]; [10]", "value": "41.43^∗ %"}, {"measurement": "% reduction", "setting": "[1]; [11]", "value": 19.36, "unit": "%"}, {"measurement": "His+ (revertant colonies)", "setting": "[1]; [11]", "value": "801 ± 32"}, {"measurement": "% reduction", "setting": "[1]; [12]", "value": 24.19, "unit": "%"}, {"measurement": "His+ (revertant colonies)", "setting": "[1]; [12]", "value": "776 ± 64"}, {"measurement": "% reduction", "setting": "[1]; [13]", "value": 32.3, "unit": "%"}, {"measurement": "His+ (revertant colonies)", "setting": "[1]; [13]", "value": "736 ± 91"}, {"measurement": "% reduction", "setting": "[1]; [14]", "value": "32.26^∗ %"}, {"measurement": "% reduction", "setting": "[1]; [15]", "value": 55.7, "unit": "%"}, {"measurement": "His+ (revertant colonies)", "setting": "[1]; [15]", "value": "620 ± 28"}, {"measurement": "% reduction", "setting": "[1]; [16]", "value": "55.65^∗ %"}, {"measurement": "% reduction", "setting": "[2]; [6]", "value": 7.27, "unit": "%"}, {"measurement": "His+ (revertant colonies)", "setting": "[2]; [6]", "value": "566 ± 54"}, {"measurement": "% reduction", "setting": "[2]; [7]", "value": 9.09, "unit": "%"}, {"measurement": "His+ (revertant colonies)", "setting": "[2]; [7]", "value": "560 ± 38"}, {"measurement": "% reduction", "setting": "[2]; [8]", "value": 14.55, "unit": "%"}, {"measurement": "His+ (revertant colonies)", "setting": "[2]; [8]", "value": "543 ± 42"}, {"measurement": "% reduction", "setting": "[2]; [9]", "value": 30, "unit": "%"}, {"measurement": "His+ (revertant colonies)", "setting": "[2]; [9]", "value": "496 ± 11"}, {"measurement": "% reduction", "setting": "[2]; [10]", "value": "30.00^∗ %"}, {"measurement": "% reduction", "setting": "[2]; [11]", "value": 16.03, "unit": "%"}, {"measurement": "His+ (revertant colonies)", "setting": "[2]; [11]", "value": "525 ± 32"}, {"measurement": "% reduction", "setting": "[2]; [12]", "value": 19.08, "unit": "%"}, {"measurement": "His+ (revertant colonies)", "setting": "[2]; [12]", "value": "515 ± 64"}, {"measurement": "% reduction", "setting": "[2]; [13]", "value": 29, "unit": "%"}, {"measurement": "His+ (revertant colonies)", "setting": "[2]; [13]", "value": "483 ± 91"}, {"measurement": "% reduction", "setting": "[2]; [14]", "value": "29.01^∗ %"}, {"measurement": "% reduction", "setting": "[2]; [15]", "value": 41.2, "unit": "%"}, {"measurement": "His+ (revertant colonies)", "setting": "[2]; [15]", "value": "443 ± 28"}, {"measurement": "% reduction", "setting": "[2]; [16]", "value": "41.22^∗ %"}, {"measurement": "Cytotoxic effect to bacterial strains", "setting": "[3]", "value": "no cytotoxic effect"}, {"measurement": "Cytoprotective effect (survival of HepG2 coexposed to MMS)", "setting": "[4]", "value": "significant protection; also recorded: significant cytoprotective effect"}, {"measurement": "Cell cycle pattern", "setting": "[5]; 25 μM AVA alone, in comparison to the control", "value": "did not induce alterations"}, {"measurement": "Effect on G1, S and G2 phases", "setting": "[5]; AVA and CPA cotreatment", "value": "did not affect"}, {"measurement": "Effect on G1 and S phases", "setting": "[5]; AVA and MMS cotreatment", "value": "did not affect"}, {"measurement": "Number of cells in the G2 phase", "setting": "[5]; AVA and MMS cotreatment", "value": "restored"}, {"measurement": "sub-G1 percentage of cells", "setting": "[5]; cotreatment 20 μM MMS + AVA 1 μM", "value": 12, "unit": "%"}, {"measurement": "sub-G1 percentage of cells", "setting": "[5]; cotreatment 20 μM MMS + AVA 10 μM", "value": 4, "unit": "%"}, {"measurement": "sub-G1 percentage of cells", "setting": "[5]; cotreatment 20 μM MMS + AVA 25 μM", "value": 2, "unit": "%"}, {"measurement": "polyploid subpopulation", "setting": "[5]; cotreatment AVA + 20 μM MMS", "value": "3-4%"}, {"measurement": "sub-G1 percentage of cells", "setting": "[5]; cotreatment AVA + CPA, no dose dependence", "value": "3-4%"}, {"measurement": "Cell cycle pattern", "setting": "[5]; cotreatment with 25 μM AVA in MMS-exposed (20 μM) cells", "value": "restored the cell cycle pattern"}]}]}
